Measured values taken from ChEMBL document CHEMBL1201862, “PubChem BioAssay data set” (2004).
Calls of active or inactive are those of the source.

Columns and labels:
[1] = Late stage assay provider results from the probe development effort to identify inhibitors of the Plasmodium falciparum M18 Aspartyl Aminopeptidase (M18AAP): radiolabel-based cell-based dose response assay to identify compounds that inhibit P. falciparum growth in RBCs, Set 2..; type: functional
[2] = HEK293T cell cytotoxicity, dose response, cytotoxicity control, CellTiter-Glo luminescence, dry powder, set 2 (AID 720595); type: functional, cell-based; details: HEK293
[3] = HepG2 hepatoma cell cytotoxicity, dose response, cytotoxicity control, CellTiter-Glo luminescence, dry powder, set 3 (AID 720594); type: functional, cell-based
[4] = Counterscreen for inhibitors of Trypanosoma brucei methionyl tRNA synthetase (MetRS): Luminescence-based cell-based high throughput dose response assay to identify compounds that are cytotoxic to Jurkat human T lymphocyte cells.; type: functional
[5] = biological target: T1, Methionyl-tRNA synthetase, putative (Trypanosoma brucei brucei, UniProt Q38C91); type: functional, Trypanosoma brucei brucei strain 927/4 GUTat10.1
T1 sequence (Q38C91 whole entry): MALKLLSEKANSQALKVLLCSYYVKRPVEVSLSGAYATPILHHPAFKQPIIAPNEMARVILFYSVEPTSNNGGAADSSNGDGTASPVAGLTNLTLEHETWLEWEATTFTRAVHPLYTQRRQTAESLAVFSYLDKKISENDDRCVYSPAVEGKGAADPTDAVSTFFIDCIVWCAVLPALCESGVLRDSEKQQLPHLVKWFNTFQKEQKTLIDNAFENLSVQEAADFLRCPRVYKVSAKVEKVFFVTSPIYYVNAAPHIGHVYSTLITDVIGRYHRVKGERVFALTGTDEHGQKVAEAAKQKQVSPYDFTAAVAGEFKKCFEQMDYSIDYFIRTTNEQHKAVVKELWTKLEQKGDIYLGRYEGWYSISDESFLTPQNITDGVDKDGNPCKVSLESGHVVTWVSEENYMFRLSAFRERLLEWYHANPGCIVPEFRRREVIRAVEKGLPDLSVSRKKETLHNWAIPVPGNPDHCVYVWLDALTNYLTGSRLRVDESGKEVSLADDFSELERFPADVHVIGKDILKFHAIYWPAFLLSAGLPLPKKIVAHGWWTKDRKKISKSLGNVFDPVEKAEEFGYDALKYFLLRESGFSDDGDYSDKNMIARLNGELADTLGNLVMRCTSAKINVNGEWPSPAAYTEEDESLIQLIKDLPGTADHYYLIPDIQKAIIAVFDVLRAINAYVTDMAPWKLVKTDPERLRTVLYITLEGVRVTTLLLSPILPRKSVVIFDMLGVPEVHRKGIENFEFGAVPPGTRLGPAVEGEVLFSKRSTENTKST

[6] = Late stage counterscreen for inhibitors of Trypanosoma brucei methionyl tRNA synthetase (MetRS): Luminescence-based cell-based high throughput dose response assay to identify compounds that are cytotoxic to Jurkat human T lymphocyte cells.; type: functional
[7] = biological target: T1, Methionyl-tRNA synthetase, putative; type: functional, Trypanosoma brucei brucei strain 927/4 GUTat10.1; remark: listed apart in the source
[8] = biological target: 1-phosphatidylinositol 4,5-bisphosphate phosphodiesterase gamma-1 (Homo sapiens, UniProt P19174); experiment: Counterscreen for inhibitors of phospholipase C isozymes (PLC-B3): Fluorescence-based biochemical high throughput dose response assay to identify inhibitors of phospholipase C isozymes (PLC-gamma1).
[9] = biological target: 1-phosphatidylinositol 4,5-bisphosphate phosphodiesterase beta-3 (Homo sapiens, UniProt Q01970); experiment: Fluorescence-based biochemical high throughput dose response assay to identify inhibitors of phospholipase C isozymes (PLC-B3).
[10] = inhibitors of fibronectin matrix deposition, dose response, AH1F cells, Alexa488-FN fluorescence, cherry-picks (AID 1035475); type: functional, cell-based
[11] = HEK293 cell cytotoxicity, dose response, cytotoxicity control, cherry-picks, set 5 (AID 1053117); type: functional, cell-based
[12] = A549 cell cytotoxicity, dose response, cytotoxicity control, cherry-picks, 26 µM top dose (AID 1053119); type: functional, cell-based
[13] = HepG2 cell cytotoxicity, dose response, cytotoxicity control, ATP luminescence, cherry-pick, set 6 (AID 1053125); type: functional, cell-based
cells [14] = details: A549
[15] = biological target: T2, Corticotropin-releasing factor receptor 2/Corticotropin-releasing factor-binding protein (Homo sapiens, UniProt P24387+Q13324); experiment: activators of CRF receptor 2 with binding protein – uHTS hits, confirmation (AID 602473); type: functional; details: read-out: EC50_Mean
T2 sequence (Q13324 whole entry): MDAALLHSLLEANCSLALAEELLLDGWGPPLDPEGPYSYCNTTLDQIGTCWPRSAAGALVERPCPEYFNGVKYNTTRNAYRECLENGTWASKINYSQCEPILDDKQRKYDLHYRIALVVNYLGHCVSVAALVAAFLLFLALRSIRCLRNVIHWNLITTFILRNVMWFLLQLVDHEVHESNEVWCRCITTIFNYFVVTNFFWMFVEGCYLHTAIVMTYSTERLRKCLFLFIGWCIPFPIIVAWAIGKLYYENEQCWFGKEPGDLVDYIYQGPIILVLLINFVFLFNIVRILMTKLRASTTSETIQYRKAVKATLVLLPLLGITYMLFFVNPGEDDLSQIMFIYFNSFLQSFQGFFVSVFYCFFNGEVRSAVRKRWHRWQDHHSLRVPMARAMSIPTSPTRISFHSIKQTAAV
T2 sequence (P24387 whole entry): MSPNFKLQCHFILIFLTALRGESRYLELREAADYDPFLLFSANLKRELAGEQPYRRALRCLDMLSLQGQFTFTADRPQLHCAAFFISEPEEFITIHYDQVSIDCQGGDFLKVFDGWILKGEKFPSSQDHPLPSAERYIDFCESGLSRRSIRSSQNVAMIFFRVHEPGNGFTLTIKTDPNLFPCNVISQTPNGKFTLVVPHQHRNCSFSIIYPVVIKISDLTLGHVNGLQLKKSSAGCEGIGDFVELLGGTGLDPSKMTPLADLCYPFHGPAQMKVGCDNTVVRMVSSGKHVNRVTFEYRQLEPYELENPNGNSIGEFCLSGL

[16] = HepG2 cell cytotoxicity, dose response, cytotoxicity control, CellTiter-Glo luminescence, cherry-pick, set 2 (AID 743395); type: functional
[17] = biological target: COUP transcription factor 2 (Homo sapiens, UniProt P24468); experiment: Luminescence-based cell-based high throughput dose response assay to identify inhibitors of COUP-TFII (NR2F2).; type: functional;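 note: HEK293 cells transiently cotransfected with COUP-TFII expression vector and reporter; luciferase reporter luminescence driven by COUP-TFII from the pX2-168 reporter plasmid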
[18] = biological target: Photoreceptor-specific nuclear receptor (Homo sapiens, UniProt Q9Y5X4); type: functional, cell-based;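 note: CHO-S cells with Gal4-NCOR and VP16-NR2E3 two-hybrid luciferase reporter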
[19] = biological target: ATP-dependent translocase ABCB1 (Homo sapiens, UniProt P08183); experiment: ABCB1 efflux inhibition concentration-response, dose response, Jurkat-DNR cells, JC-1, flow cytometry, follow-up (AID 489002); type: functional
HeLa = experiment: HeLa cell cytotoxicity, dose response, cytotoxicity control, ATP luminescence, cherry-pick samples (AID 687004); type: functional, cell-based; details: Homo sapiens
[20] = HEK293 Cytotoxicity Assay Measured in Cell-Based System Using Plate Reader - 7071-01_Inhibitor_Dose_CherryPick_Activity_Set2.; type: functional
HEK293 = experiment: HEK293T cell cytotoxicity, dose response, cytotoxicity control, ATP luminescence, cherry-pick samples (AID 687005); type: functional, cell-based; details: Homo sapiens;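 note: cells exposed to compound for 48 hours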
[21] = A2780 ovarian cancer cell cytotoxicity, dose response, cytotoxicity control, plate reader, dry powder samples (AID 743046); type: functional, cell-based
[22] = NIH:OVCAR-3 ovarian cancer cell cytotoxicity, dose response, PAX8 inhibitor project, plate reader, dry powder samples (AID 743044); type: functional, cell-based
[23] = IGROV1 ovarian cancer cell cytotoxicity, dose response, PAX8 inhibitor project, plate reader, dry powder samples (AID 743043); type: functional, cell-based; details: IGROV-1
[24] = IOSE-T80 ovarian epithelial cell cytotoxicity, dose response, cytotoxicity control for PAX8 inhibitor project, plate reader, dry powder samples (AID 743045); type: functional, cell-based
Paired box protein Pax-8 = Paired box protein Pax-8 (Homo sapiens, UniProt Q06710); experiment: inhibitors of PAX8-driven TPO luciferase reporter, dose response, RMG-I cells, cherry-pick (AID 687027); type: functional, cell-based;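 note: luciferase reporter driven by Pax8 target thyroperoxidase promoter measured by SteadyGlo luminescence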
[25] = T. b. rhodesiense proliferation inhibition, dose response, STIB900 strain, plate reader, dry powder (AID 651894); type: functional, cell-based
[26] = T. cruzi intracellular amastigote growth inhibition, dose response, imaging, CA-I/72 strain, bovine embryo skeletal muscle, dry powder (AID 651885); type: functional, cell-based
[27] = L-6 rat myoblast cytotoxicity, dose response, counter-screen for T. cruzi inhibitor project, cell-based, plate reader, dry powder (AID 651895); type: functional
[28] = L. donovani amastigote growth inhibition, dose response, axenic amastigotes, plate reader, dry powder (AID 651892); type: functional, cell-based
[29] = P. falciparum blood-stage growth inhibition, dose response, NF54 strain, plate reader, dry powder (AID 651889); type: functional, cell-based
[30] = growth inhibition of intracellular T. cruzi, dose response, cell-based, plate reader, dry powder samples (AID 651845); type: functional
[31] = T. cruzi growth inhibition in host cells, dose response, cell-based, plate reader, dry powder, set 2 (AID 652275); type: functional
[32] = T. cruzi amastigote growth inhibition, dose response, Tulahuen strain, L-6 host cells, dry powder (AID 651890); type: functional, cell-based
[33] = biological target: Metabotropic glutamate receptor 5 (Rattus norvegicus, UniProt P31424); experiment: Identification of a glycine sulfonamide based non-MPEP site positive allosteric potentiator (PAM) of mGlu5 (calcium_assay).; type: functional
[34] = biological target: Potassium channel subfamily K member 9 (Homo sapiens, UniProt Q9NPC2); experiment: TASK3 (KCNK9) channel inhibitors, thallium flux, SAR follow-up, selectivity assay for TASK1 inhibitor project, cell-based, FluxOR thallium flux, concentration-response (AID 652211); type: functional;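 note: potency is for inhibitors of the channel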
[35] = biological target: Potassium channel subfamily K member 3 (Homo sapiens, UniProt O14649); experiment: TASK1 (KCNK3) potassium channel inhibitors, SAR follow-up, CHO cells, FluxOR thallium flux (AID 652212); type: functional
cells [36] = experiment: cells
cells [37] = details: HEK293;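 note: cells exposed to compound for 48 hours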

Potassium channel subfamily K member 9, sequence (Q9NPC2 whole entry): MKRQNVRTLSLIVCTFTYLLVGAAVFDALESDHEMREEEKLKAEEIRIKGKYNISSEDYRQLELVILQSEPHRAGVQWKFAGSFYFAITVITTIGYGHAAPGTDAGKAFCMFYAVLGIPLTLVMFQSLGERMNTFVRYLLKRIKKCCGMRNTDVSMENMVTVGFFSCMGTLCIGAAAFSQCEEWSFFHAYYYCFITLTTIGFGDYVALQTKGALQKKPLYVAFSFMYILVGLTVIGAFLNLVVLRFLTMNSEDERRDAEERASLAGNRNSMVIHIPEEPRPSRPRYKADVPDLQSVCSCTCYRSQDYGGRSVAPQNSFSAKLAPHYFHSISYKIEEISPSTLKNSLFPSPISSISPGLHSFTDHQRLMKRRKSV
1-phosphatidylinositol 4,5-bisphosphate phosphodiesterase beta-3, sequence (Q01970 whole entry): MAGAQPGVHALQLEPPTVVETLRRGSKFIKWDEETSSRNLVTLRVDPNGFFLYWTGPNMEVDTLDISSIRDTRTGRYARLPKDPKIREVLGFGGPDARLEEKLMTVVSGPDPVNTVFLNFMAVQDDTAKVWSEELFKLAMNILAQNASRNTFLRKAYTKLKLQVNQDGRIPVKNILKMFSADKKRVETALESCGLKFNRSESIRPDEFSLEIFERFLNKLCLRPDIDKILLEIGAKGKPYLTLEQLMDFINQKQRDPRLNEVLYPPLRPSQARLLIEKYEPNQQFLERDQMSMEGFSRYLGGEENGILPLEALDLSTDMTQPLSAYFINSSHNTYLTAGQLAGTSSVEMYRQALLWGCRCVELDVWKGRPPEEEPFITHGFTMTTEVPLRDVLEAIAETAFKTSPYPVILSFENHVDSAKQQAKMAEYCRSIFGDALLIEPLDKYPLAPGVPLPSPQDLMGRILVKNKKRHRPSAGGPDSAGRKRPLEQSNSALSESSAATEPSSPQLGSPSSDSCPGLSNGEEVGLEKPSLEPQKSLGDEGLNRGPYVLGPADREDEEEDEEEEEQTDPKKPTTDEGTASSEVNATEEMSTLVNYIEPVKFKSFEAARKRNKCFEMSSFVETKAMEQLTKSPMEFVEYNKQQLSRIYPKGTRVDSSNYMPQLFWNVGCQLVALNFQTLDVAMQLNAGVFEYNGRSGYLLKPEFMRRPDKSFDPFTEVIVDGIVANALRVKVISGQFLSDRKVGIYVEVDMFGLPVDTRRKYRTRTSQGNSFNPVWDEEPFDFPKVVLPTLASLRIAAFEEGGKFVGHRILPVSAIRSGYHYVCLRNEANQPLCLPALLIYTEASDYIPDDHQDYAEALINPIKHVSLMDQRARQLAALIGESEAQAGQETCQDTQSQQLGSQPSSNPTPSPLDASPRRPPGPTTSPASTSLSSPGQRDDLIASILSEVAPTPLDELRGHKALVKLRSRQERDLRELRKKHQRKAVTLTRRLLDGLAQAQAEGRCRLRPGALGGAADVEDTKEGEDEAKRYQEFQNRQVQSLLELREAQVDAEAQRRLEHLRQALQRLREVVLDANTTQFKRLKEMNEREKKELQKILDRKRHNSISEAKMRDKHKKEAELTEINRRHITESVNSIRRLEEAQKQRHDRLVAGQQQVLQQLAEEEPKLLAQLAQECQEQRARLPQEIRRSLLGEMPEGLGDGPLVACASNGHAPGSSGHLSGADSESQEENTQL
COUP transcription factor 2, sequence (P24468 whole entry, the tested form may be a part): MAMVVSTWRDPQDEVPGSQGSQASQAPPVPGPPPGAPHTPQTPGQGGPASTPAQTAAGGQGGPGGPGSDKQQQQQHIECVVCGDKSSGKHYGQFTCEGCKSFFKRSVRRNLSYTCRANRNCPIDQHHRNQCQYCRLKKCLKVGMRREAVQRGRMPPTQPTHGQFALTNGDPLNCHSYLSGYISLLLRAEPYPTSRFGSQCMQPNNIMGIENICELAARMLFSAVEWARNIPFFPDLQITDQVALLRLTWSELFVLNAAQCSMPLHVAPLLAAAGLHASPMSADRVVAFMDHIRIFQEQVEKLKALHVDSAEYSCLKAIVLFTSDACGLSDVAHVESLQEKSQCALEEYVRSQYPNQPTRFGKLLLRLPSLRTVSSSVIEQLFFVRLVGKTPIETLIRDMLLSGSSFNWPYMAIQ
Paired box protein Pax-8, sequence (Q06710 whole entry): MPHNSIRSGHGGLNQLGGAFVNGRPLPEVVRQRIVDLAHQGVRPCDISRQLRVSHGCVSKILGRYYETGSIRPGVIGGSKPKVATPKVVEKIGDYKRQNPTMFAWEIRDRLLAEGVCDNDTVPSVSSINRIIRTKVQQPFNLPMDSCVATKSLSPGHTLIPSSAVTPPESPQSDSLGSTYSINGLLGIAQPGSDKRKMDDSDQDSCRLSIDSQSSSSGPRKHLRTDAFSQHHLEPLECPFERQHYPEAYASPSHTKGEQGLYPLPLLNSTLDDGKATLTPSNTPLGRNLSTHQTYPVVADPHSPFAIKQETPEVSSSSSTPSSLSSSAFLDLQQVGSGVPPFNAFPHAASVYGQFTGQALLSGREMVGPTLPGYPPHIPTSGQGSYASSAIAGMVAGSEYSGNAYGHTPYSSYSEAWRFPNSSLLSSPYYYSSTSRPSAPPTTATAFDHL
1-phosphatidylinositol 4,5-bisphosphate phosphodiesterase gamma-1, sequence (P19174 whole entry): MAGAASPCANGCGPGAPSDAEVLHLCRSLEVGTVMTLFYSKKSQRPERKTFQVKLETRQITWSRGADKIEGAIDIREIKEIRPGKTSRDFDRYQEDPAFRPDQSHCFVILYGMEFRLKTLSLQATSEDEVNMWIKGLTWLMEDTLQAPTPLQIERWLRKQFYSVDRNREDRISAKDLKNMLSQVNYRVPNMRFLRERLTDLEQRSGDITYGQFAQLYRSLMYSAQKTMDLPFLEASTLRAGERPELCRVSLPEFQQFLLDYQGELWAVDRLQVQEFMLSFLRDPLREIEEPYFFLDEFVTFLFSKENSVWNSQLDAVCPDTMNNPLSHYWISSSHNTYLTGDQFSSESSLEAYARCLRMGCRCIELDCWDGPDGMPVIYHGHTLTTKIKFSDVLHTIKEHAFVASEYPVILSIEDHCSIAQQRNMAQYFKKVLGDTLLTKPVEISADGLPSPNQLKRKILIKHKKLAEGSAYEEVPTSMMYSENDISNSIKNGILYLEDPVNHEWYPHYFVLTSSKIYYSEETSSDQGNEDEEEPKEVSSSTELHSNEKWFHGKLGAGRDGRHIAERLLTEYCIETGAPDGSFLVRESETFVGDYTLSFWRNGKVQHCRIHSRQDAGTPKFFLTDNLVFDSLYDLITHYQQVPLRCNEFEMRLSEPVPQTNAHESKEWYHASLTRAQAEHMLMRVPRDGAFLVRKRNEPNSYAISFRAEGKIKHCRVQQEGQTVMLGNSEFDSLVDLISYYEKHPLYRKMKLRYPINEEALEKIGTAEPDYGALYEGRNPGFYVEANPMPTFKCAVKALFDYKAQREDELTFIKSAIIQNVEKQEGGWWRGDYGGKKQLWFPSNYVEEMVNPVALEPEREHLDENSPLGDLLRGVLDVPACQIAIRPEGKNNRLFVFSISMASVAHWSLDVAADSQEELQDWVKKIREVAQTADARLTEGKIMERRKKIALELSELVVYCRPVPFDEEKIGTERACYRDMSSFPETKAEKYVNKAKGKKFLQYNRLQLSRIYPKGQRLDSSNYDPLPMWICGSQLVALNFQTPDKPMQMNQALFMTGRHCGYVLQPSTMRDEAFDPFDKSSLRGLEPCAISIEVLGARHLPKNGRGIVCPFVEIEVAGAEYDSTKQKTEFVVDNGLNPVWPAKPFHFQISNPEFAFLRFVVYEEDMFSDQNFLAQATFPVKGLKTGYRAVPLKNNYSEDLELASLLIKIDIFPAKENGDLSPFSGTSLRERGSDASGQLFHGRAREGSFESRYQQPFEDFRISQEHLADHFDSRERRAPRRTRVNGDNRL
Metabotropic glutamate receptor 5, sequence (P31424 whole entry): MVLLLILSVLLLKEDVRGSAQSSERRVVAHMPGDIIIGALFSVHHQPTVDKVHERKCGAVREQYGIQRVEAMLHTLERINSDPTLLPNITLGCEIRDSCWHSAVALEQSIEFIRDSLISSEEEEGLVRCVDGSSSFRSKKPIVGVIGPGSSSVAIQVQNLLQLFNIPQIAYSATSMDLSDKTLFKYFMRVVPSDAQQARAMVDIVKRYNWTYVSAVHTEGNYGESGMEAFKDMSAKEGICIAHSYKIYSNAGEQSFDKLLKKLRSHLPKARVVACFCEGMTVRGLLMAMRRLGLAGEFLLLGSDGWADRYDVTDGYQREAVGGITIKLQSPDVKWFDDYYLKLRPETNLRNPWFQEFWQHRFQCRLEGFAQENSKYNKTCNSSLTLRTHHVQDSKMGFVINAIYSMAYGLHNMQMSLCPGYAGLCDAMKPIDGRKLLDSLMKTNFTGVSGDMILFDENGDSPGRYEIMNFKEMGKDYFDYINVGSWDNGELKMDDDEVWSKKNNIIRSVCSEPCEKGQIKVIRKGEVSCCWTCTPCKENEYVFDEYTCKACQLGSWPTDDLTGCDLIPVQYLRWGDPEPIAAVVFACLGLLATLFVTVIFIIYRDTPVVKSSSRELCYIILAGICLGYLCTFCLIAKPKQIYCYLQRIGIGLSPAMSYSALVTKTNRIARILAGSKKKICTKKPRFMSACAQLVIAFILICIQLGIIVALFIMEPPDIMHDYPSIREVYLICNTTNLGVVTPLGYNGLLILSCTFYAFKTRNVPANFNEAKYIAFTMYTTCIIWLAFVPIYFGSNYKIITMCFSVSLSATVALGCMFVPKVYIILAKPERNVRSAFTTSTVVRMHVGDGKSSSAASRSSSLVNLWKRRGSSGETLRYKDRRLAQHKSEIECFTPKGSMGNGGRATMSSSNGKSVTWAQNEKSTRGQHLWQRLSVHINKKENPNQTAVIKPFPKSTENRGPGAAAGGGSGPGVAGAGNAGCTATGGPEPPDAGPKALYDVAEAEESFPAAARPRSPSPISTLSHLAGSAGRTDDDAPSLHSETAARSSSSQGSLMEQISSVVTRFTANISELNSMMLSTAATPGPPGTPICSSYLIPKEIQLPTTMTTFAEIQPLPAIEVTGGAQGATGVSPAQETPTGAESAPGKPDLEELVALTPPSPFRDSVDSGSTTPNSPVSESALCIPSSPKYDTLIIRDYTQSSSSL

COc1ccc(CCNC2CCN(Cc3ccccc3)CC2)cc1OC
IC50 [1]: 6.9 µM (active)

CC1CCN(S(=O)(=O)c2ccc(C(=O)Nc3nnc(C4=COCCO4)o3)cc2)CC1
AC50 [2]: 48.7 µM (active)
AC50 [3]: > 52 µM (inactive)

O=C(Nc1ccc(F)c(Cl)c1)C1CC(=O)n2c(nc3ccccc32)N1 (stereo not given)
IC50 [4]: 83.3 µM (inactive)
IC50 [5]: 1.47 µM (active)
IC50 [6]: > 83.3 µM (inactive)
IC50 [7]: 2.34 µM (active)

CC/C(NCC1CCCO1)=C1/C(=O)NC(=O)N(Cc2ccccc2)C1=O (stereo not given)
IC50 [8]: > 122 µM (inactive)
IC50 [9]: > 122 µM (inactive)

CCOc1cccc(C(=O)Nc2ccc(N(CC)CC)cc2)c1
AC50 [10]: 64.4 µM (active)
AC50 [11]: 34.6 µM (active)
AC50 [12]: > 52 µM (inactive)

CCCCCCc1cc2cc(S(=O)(=O)c3ccc(F)cc3)c(=O)oc2cc1O
AC50 [13]: 50.4 µM (active)
AC50 (cells [14]): 42.1 µM (active)
EC50 [15]: > 53 µM (inactive)

COc1ccc(NC(=O)c2cc(S(=O)(=O)N3CCOCC3)ccc2C)cc1S(=O)(=O)N1CCOCC1
AbsAC35_uM [16]: 36.86 µM

OC[C@@H]1CN(Cc2ccc(-c3ccccc3)cc2)C[C@H](n2cnc3c(NCc4ccncc4)ncnc32)O1
IC50 [17]: 10 µM (inactive)
IC50 [18]: 1.52 µM (active)

O=C(Nc1ccccc1)C1CCN(c2cc(-c3ccco3)nc3cc(-c4ccccc4)nn23)CC1
EC50 [19]: 0.1399 µM

COc1ccc(CN(C)C[C@H]2Oc3ccc(NC(=O)Nc4ccc(F)cc4)cc3CC(=O)N([C@@H](C)CO)C[C@@H]2C)cc1
AC50 (HeLa): > 52 µM (inactive)
AC50 [20]: 26.3 µM (active)
AC50 (HEK293): 26.3 µM (active)

C[C@@H]1CN([C@H](C)CO)C(=O)c2cc(NC(=O)Nc3ccc(C(F)(F)F)cc3)ccc2O[C@@H](C)CCCCO[C@@H]1CN(C)Cc1ccncc1
AC50 [21]: 56.9 µM (active)
AC50 [22]: 14.8 µM (active)
AC50 [23]: 41.8 µM (active)
AC50 [24]: 56.4 µM (active)
AC50 (Paired box protein Pax-8): 4.21 µM (active)

C[C@@H]1CN([C@@H](C)CO)C(=O)c2cccc(NC(=O)c3ccncc3)c2O[C@@H]1CN(C)Cc1ccc(Oc2ccccc2)cc1
IC50 [25]: 1.02 µM (inactive)
IC50 [26]: 0.55 µM (active)
IC50 [27]: 47.6 µM (inactive)
IC50 [28]: > 100 µM (inactive)
IC50 [29]: 0.873 µM (inactive)
AC50 [30]: 0.506 µM (active)
AC50 [31]: 0.276 µM (active)
IC50 [32]: 0.666 µM (active)

CS(=O)(=O)N1c2ccccc2CCC1C(=O)Nc1cccnc1 (stereo not given)
EC50 [33]: 3.62 µM

Cc1cccc(C(=O)Nc2cccc(NC(=O)C3CCCCC3)c2)c1
IC50 [34]: 11.9 µM (active)
IC50 [35]: 0.017 µM (active)

Cc1ccc2[nH]c3ccccc3c(=O)c2c1
AC50 (cells [36]): 7.34 µM (active)
AC50 (cells [37]): 38.6 µM (active)
